Reference: patent US7544664B2, “Sequences facilitating penetration of a substance of interest” (priority 2003, dated 2009)
Where two headings read alike, the source gives them in different places. Where a SMILES comes first, the peptide text is derived from it. The star is where a group is joined. X1 = C[C@@H]1[C@H](O)[C@@H](C)/C=C/C=C/C=C/C=C/C=C/C=C/C=C/[C@H](O[C@@H]2O[C@H](C)[C@@H](O)[C@H](NC(=O)CCCCCN3C(=O)CC(*)C3=O)[C@@H]2O)C[C@@H]2O[C@](O)(C[C@@H](O)C[C@@H](O)[C@H](O)CC[C@@H](O)C[C@@H](O)CC(=O)O[C@H]1C)C[C@H](O)[C@H]2C(=O)O; X2 = O=C(CCCCCN1C(=O)CC(*)C1=O)OCCOC(=O)CCCc1ccc(N(CCCl)CCCl)cc1

Experiments:
[1] = test system: HCT116: human colon carcinoma; assay: cells; assay type: cell-based; settings: for IC50: read-out: IC50 values; for more efficient than Chl: HCT116 colon carcinoma
Procedure: HCT116: human colon carcinoma (origin: ATCC #CCL-247)
(§1) Viability assays were performed. Briefly, cells are seeded in 96-well plates and incubated with increasing concentrations of drugs (i) for 1 hour then cells are rinsed and incubated with fresh medium without drugs for 48 hours, or (ii) for 48 hours. A WST-1 test (from Roche) was performed and IC50 values (drug concentration that inhibits 50% of cell viability) were estimated from sigmoidal regressions.
(§2) DPV15-E-Chl conjugate was compared to non-conjugated Chl and 5FUra for the inhibition of in vitro cell proliferation of human carcinoma and leukemia cells. We calculated IC50 values=drug concentration that inhibits 50% of cell viability.

[2] = test system: HT29: human colon carcinoma; assay: cells; assay type: cell-based; settings: for IC50: read-out: IC50 values
Procedure: HT29: human colon carcinoma, low P-gp expression (origin: ATCC #HTB-38)
as §1, §2

[3] = test system: K562: human chronic myelogenous leukemia; assay: Viability assay (WST-1); assay type: cell-based
Procedure: K562: human chronic myelogenous leukemia (CML) (origin: ATCC #CCL-243).
as §1, §2

[4] = Stability in H2O+0.1% TFA overnight at room temperature; assay type: physicochemical; settings: protected from light, Chl 0.1 mg/ml, DPV15-E-Chl 0.5 mg/ml in H2O+0.1% TFA
Procedure: After overnight incubation at room temperature and protected from light, both Chl (0.1 mg/ml in H2O+0.1% TFA) and DPV15-E-Chl (0.5 mg/ml in H2O+0.1% TFA) are degraded (50% degradation).

[5] = Solubility in water / aqueous solutions
[6] = test system: Candida albicans (ATCC 90028); assay: Lethal murine candidiasis model; assay type: in vivo, mice; settings: single i.v. 3 hours after inoculation
Procedure: Test substances (DPV15-AmB and AmB (Fungizone)) and vehicule control were administrated i.v. with doses ranging from 0.25 mg/kg to 2.5 mg/kg AmB equivalent to test animals 3 hours after the fungal inoculation. Mortality was recorded once daily for 8 days.

[7] = Single dose toxicity, intravenous injection; assay type: in vivo, mice
Procedure: The single dose toxicity of the DPV15-AmB conjugate was assessed by mortality and/or body weight loss after a single dose intravenous injection. Mice were treated with DPV15-AmB 2.57, 3.68, 5.52, 7.36, 9.2, 18.4 and 36.8 mg/kg with vehicle (NaCl/H2O 9/1 v/v). These different doses correspond to 0.7, 1, 1.5, 2, 2.5, 5 and 10 mg/kg of AMB respectively. The dose of 1 mg/kg corresponds to the MTD of AmB exposed in the literature (Tabosa Do Egito et al., In-vitro and In-vivo evaluation of a new amphothericin B emulsion-based delivery system. J Antimicrob Vhemother. 1996 September; 38(3):485-97).

[8] = HCT116 colon, 1 h incubation + 48 h
[9] = HT29 colon, 1 h incubation + 48 h
[10] = HT29 colon carcinoma, short exposure

Which IC50 [1, 8] does the source give for `O=c1[nH]cc(F)c(=O)[nH]1` [5FUra] here?
Its IC50 is 113 ± 40 µM.

And the IC50 ([1]; HCT116 colon, 48 h incubation)?
The IC50 was 8.5 ± 7.9 µM.

What about the IC50 [2, 9] of the same compound?
Its IC50 is over 1000 µM.

What about the IC50 ([2]; HT29 colon, 48 h incubation) of the same compound?
The IC50 was 725 ± 388 µM.

For `O=C(O)CCCc1ccc(N(CCCl)CCCl)cc1` [Chl, Chlorambucil], which IC50 ([3]; Homo sapiens, 1 h incubation + 48 h) is on record?
Its IC50 is over 500 µM.

What about the IC50 ([3]; Homo sapiens, 48 h incubation) of the same compound?
The IC50 was 250 ± 70 µM.

What about the IC50 ([1]; Homo sapiens, HCT-116, 48 h) of the same compound?
Its IC50 is 200 ± 70 µM.

And the IC50 ([2]; Homo sapiens, HT-29, 48 h)?
Its IC50 is 250 ± 70 µM.

What about the “degradation after overnight incubation” value [4] of the same compound?
The value was 50%.

What about the “Solubility in water / aqueous solutions” value [5] of the same compound?
Its value is “not soluble”.

For `CC(C)C[C@H](NC(=O)[C@H](CCCNC(=N)N)NC(=O)[C@H](CO)NC(=O)[C@H](CCC(N)=O)NC(=O)[C@H](CCCNC(=N)N)NC(=O)[C@H](CCC(=O)O)NC(=O)[C@H](CCCNC(=N)N)NC(=O)[C@H](CCCNC(=N)N)NC(=O)[C@@H](N)CC(C)C)C(=O)N[C@@H](CCCNC(=N)N)C(=O)N[C@@H](CCCNC(=N)N)C(=O)N[C@@H](CCC(=O)O)C(=O)N[C@@H](CCCNC(=N)N)C(=O)N[C@@H](CCC(N)=O)C(=O)N[C@@H](CO)C(=O)N[C@@H](CCCNC(=N)N)C(=O)N[C@@H](CSC1CC(=O)N(CCCCCC(=O)N[C@@H]2[C@H](O)[C@H](O[C@H]3/C=C/C=C/C=C/C=C/C=C/C=C/C=C/[C@H](C)[C@@H](O)[C@@H](C)[C@H](C)OC(=O)C[C@H](O)C[C@H](O)CC[C@@H](O)[C@H](O)C[C@H](O)C[C@]4(O)C[C@H](O)[C@@H](C(=O)O)[C@H](C3)O4)O[C@H](C)[C@H]2O)C1=O)C(=O)O` (stereo partly shown) [DPV15-AmB] (H-LRRERQSRLRRERQSRC(X1)-OH), which “survival on day 8” value ([6]; 0.5 mg/kg AmB equivalent) is on record?
The value was 50%.

And the “survival on day 8” value ([6]; 1 mg/kg AmB equivalent)?
The value was 50%.

And the mortality ([7]; 18.4 mg/kg, 24 hours after the injection)?
Its mortality is 1 mouse was found dead.

And the “loss of initial body weight” value ([7]; 18.4 mg/kg, two surviving mice, 24 hours after the injection)?
Its value is “about 12%”.

And the Acute lethal toxicity ([7]; 36.8 mg/kg (10 mg/kg of AMB), single i.v.)?
The Acute lethal toxicity was “observed”.

And the “effect on the body weight at Day 28” value ([7]; 2.57, 3.68, 5.52, 7.36 and 9.2 mg/kg, single i.v.)?
The value was “no effect”.

And the MTD at 28 day ([7]; mouse, in vivo, iv, single i.v., conjugate dose, read-out: maximal tolerated dose)?
The MTD at 28 day was 9.2 to 18.4 mg/kg.

For `CC(C)C[C@H](NC(=O)[C@H](CCCNC(=N)N)NC(=O)[C@H](CO)NC(=O)[C@H](CCC(N)=O)NC(=O)[C@H](CCCNC(=N)N)NC(=O)[C@H](CCC(=O)O)NC(=O)[C@H](CCCNC(=N)N)NC(=O)[C@H](CCCNC(=N)N)NC(=O)[C@@H](N)CC(C)C)C(=O)N[C@@H](CCCNC(=N)N)C(=O)N[C@@H](CCCNC(=N)N)C(=O)N[C@@H](CCC(=O)O)C(=O)N[C@@H](CCCNC(=N)N)C(=O)N[C@@H](CCC(N)=O)C(=O)N[C@@H](CO)C(=O)N[C@@H](CCCNC(=N)N)C(=O)N[C@@H](CSC1CC(=O)N(CCCCCC(=O)OCCOC(=O)CCCc2ccc(N(CCCl)CCCl)cc2)C1=O)C(=O)O` (stereo partly shown) [DPV15-E-Chl] (H-LRRERQSRLRRERQSRC(X2)-OH), which IC50 ([3]; 1 h incubation + 48 h) is on record?
Its IC50 is 30 µM.

What about the IC50 ([3]; 48 h incubation) of the same compound?
Its IC50 is 30 µM.

What about the “more efficient than Chl” value ([3]; long exposure) of the same compound?
The value was 8 fold.

And the “more efficient than Chl” value ([3]; short exposure)?
Its value is at least 16 fold.

And the “more efficient than Chl” value ([1]; long exposure)?
Its value is 8 fold.

And the “more efficient than Chl” value ([1]; short exposure)?
The value was 12 fold.

What about the IC50 [1, 8] of the same compound?
Its IC50 is 43 ± 15 µM.

And the IC50 ([1]; HCT116 colon, 48 h incubation)?
Its IC50 is 25 ± 7 µM.

What about the “more efficient than 5FUra” value [2, 10] of the same compound?
The value was at least 17 fold.

And the “more efficient than Chl” value [2, 10]?
The value was 11 fold.

What about the IC50 [2, 9] of the same compound?
Its IC50 is 60 µM.

What about the IC50 ([2]; HT29 colon, 48 h incubation) of the same compound?
The IC50 was 325 µM.

And the “degradation after overnight incubation” value [4]?
The value was 50%.

What about the solubility [5] of the same compound?
Its solubility is at least 10000 µg/mL.
